PubChem BioAssay AID330 (DTP/NCI, 2004)
Inconclusive results and toxic doses are left out.

Test system: P388 leukemia ip, CD2F1 mice, survival T/C
Assay: NCI In Vivo Anticancer Drug Screen. Data for tumor model P388 Leukemia (intraperitoneal) in CD2F1 (CDF1) mice
Conditions: endpoint: median survival time, higher = longer survival
Procedure, shortened: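 Mice carrying the transplanted tumor received test compound or vehicle. Survival was recorded in each group, and the value is the treated-group measurement divided by that of the vehicle-treated control group.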

[1] = dose: 25.0 mg/kg/injection, schedule: Q01DX009 (ip), vehicle: saline
[2] = dose: 50.0 mg/kg/injection, schedule: Q01DX009 (ip), vehicle: saline
[3] = dose: 100.0 mg/kg/injection, schedule: Q01DX009 (ip), vehicle: saline
[4] = dose: 200.0 mg/kg/injection, schedule: Q01DX009 (ip), vehicle: saline

O=S1(=O)CCC(N2CCCCC2)C1 (configuration not stated)
T/C [1]: 102 % of control
T/C [2]: 94 % of control
T/C [3]: 104 % of control
T/C [4]: 98 % of control

O=C(NC1CC1)c1ccccc1
T/C (dose: 25.0 mg/kg/injection, schedule: Q01DX009 (ip), vehicle: saline with Tween-80): 96 % of control
T/C (dose: 50.0 mg/kg/injection, schedule: Q01DX009 (ip), vehicle: saline with Tween-80): 100 % of control
T/C (dose: 100.0 mg/kg/injection, schedule: Q01DX009 (ip), vehicle: saline with Tween-80): 87 % of control
T/C (dose: 200.0 mg/kg/injection, schedule: Q01DX009 (ip), vehicle: saline with Tween-80): 87 % of control

COC(=O)C1C(C)(C)N=[N+]([O-])C1(C)C (configuration not stated)
T/C (dose: 12.5 mg/kg/injection, schedule: Q01DX009 (ip), vehicle: water): 102 % of control
T/C (dose: 25.0 mg/kg/injection, schedule: Q01DX009 (ip), vehicle: water): 107 % of control
T/C (dose: 50.0 mg/kg/injection, schedule: Q01DX009 (ip), vehicle: water): 99 % of control
T/C (dose: 100.0 mg/kg/injection, schedule: Q01DX009 (ip), vehicle: water): 97 % of control
T/C (dose: 200.0 mg/kg/injection, schedule: Q01DX009 (ip), vehicle: water): 99 % of control

Cc1cccc(NC(=O)CCC(=O)NS(C)(=O)=O)c1
T/C (dose: 100.0 mg/kg/injection, schedule: Q04DX002 (ip), vehicle: saline): 103 % of control
T/C (dose: 200.0 mg/kg/injection, schedule: Q04DX002 (ip), vehicle: saline): 102 % of control
T/C (dose: 400.0 mg/kg/injection, schedule: Q04DX002 (ip), vehicle: saline): 100 % of control

Cc1ccccc1N=C(CCl)Nc1ccccc1C
T/C (dose: 50.0 mg/kg/injection, schedule: Q01DX005 (ip), vehicle: saline with Tween-80): 94 % of control
T/C (dose: 100.0 mg/kg/injection, schedule: Q01DX005 (ip), vehicle: saline with Tween-80): 99 % of control

COC1C(O)CC(OC2C(C)OC(Oc3cc(O)c4c(O)c5c(cc4c3)C[C@@H]([C@H](OC)C(=O)[C@@H](O)[C@@H](C)O)[C@H](OC3CC(OC4CC(OC6CC(C)(O)C(O)C(C)O6)C(O)C(C)O4)C(O)C(C)O3)C5=O)CC2OC(C)=O)OC1C (some centres not stated)
T/C (dose: 37.5 mg/kg/injection, schedule: Q01DX009 (ip), vehicle: saline): 107 % of control
T/C (dose: 75.0 mg/kg/injection, schedule: Q01DX009 (ip), vehicle: saline): 111 % of control
T/C (dose: 150.0 mg/kg/injection, schedule: Q01DX009 (ip), vehicle: saline): 98 % of control
T/C (dose: 300.0 mg/kg/injection, schedule: Q01DX009 (ip), vehicle: saline): 107 % of control

O=S1(=O)NC2CCC3NS(=O)(=O)NC4CCC(N1)N4S(=O)(=O)N23 (configuration not stated)
T/C (dose: 50.0 mg/kg/injection, schedule: Q01DX005 (ip), vehicle: distilled water + alcohol): 101 % of control
T/C (dose: 100.0 mg/kg/injection, schedule: Q01DX005 (ip), vehicle: distilled water + alcohol): 109 % of control
T/C (dose: 200.0 mg/kg/injection, schedule: Q01DX005 (ip), vehicle: distilled water + alcohol): 105 % of control

N#Cc1cccnc1.NCCNCCN.[Br-].[Pt+4]
T/C (dose: 12.5 mg/kg/injection, schedule: Q01DX009 (ip), vehicle: saline): 100 % of control
T/C [1]: 96 % of control
T/C [2]: 105 % of control
T/C [3]: 103 % of control
T/C [4]: 102 % of control

CN(C)CCNc1ccc(NCCNCCO)c2c1C(=O)c1ccccc1C2=O
T/C (dose: 10.0 mg/kg/injection, schedule: Q04DX002 (ip), vehicle: saline): 151 % of control
T/C (dose: 20.0 mg/kg/injection, schedule: Q04DX002 (ip), vehicle: saline): 173 % of control
T/C (dose: 40.0 mg/kg/injection, schedule: Q04DX002 (ip), vehicle: saline): 192 % of control
T/C (dose: 80.0 mg/kg/injection, schedule: Q04DX002 (ip), vehicle: saline): 192 % of control

Cc1ccc(S(=O)(=O)CC(=O)CC(=O)C(=O)Nc2ccc(C)cc2C)cc1
T/C (dose: 60.0 mg/kg/injection, schedule: Q01DX005 (ip), vehicle: saline with Tween-80): 108 % of control
T/C (dose: 120.0 mg/kg/injection, schedule: Q01DX005 (ip), vehicle: saline with Tween-80): 106 % of control
T/C (dose: 240.0 mg/kg/injection, schedule: Q01DX005 (ip), vehicle: saline with Tween-80): 99 % of control

CC(N)CN1CC(C)N=C1c1ccncc1 (configuration not stated)
T/C [2]: 102 % of control
T/C [3]: 98 % of control
T/C [4]: 99 % of control

Cc1cc(N)ccc1-n1cnc2c1c(=O)n(C)c(=O)n2C
T/C (dose: 50.0 mg/kg/injection, schedule: Q01DX005 (ip), vehicle: water): 109 % of control
T/C (dose: 100.0 mg/kg/injection, schedule: Q01DX005 (ip), vehicle: water): 111 % of control
